# What was measured:
# [1] = Functional antagonism of NR1a/2C N-methyl-D-aspartate glutamate receptor of rat membrane expressed in Xenopus oocytes; conditions: Oocyte
# [2] = target: Glutamate receptor ionotropic, AMPA (Rattus norvegicus) (UniProt P19491+P19492+P19493+P19490); experiment: Inhibition of Ionotropic glutamate receptor AMPA in xenopus oocytes expressing the rat cerebral cortex poly(A+) RNA; type: cell-based; conditions: Oocyte
# [3] = target: Glutamate receptor ionotropic, NMDA 1 (Rattus norvegicus, UniProt P35439); experiment: Inhibition of [3H]- DCKA binding to NMDA receptor of rat brain membranes; type: cell membranes, Membrane
# [4] = Steady state Selectivity index for inhibition at NMDA receptor glycine site was estimated by dividing Kb (AMPA) by Kb (NMDA)
SMILES,Kb [2] [nM],IC50 [3] [nM],Selectivity [4],Kb [1] [nM]
Cc1cc(C)c2nc(O)c(O)nc2c1,–,2100,–,–
Oc1nc2ccc(Cl)cc2nc1O,–,1800,–,2600
Cc1cc(C)c2c(O)c(N=O)c(=O)[nH]c2c1,–,37,–,–
Oc1nc2cc(Cl)cc(Cl)c2nc1O,–,280,–,730
Oc1nc2ccccc2nc1O,–,9800,–,–
O=Nc1c(O)c2c(F)c(F)c(F)c(F)c2[nH]c1=O,–,3300,–,–
O=Nc1c(O)nc2cc(Cl)c(Cl)c(Cl)c2c1O,180,7,–,22
O=Nc1c(O)c2cc(F)c(Cl)c(F)c2[nH]c1=O,–,910,–,–
O=c1[nH]c2c(F)c(F)c(F)c(F)c2[nH]c1=O,–,730,–,–
"Oc1nc2cc(Cl)c(Cl)cc2nc1O [2,3-DIHYDROXY-6,7-DICHLOROQUINOXALINE]",–,130,–,380
Oc1nc2cc(Cl)c(Cl)c(Cl)c2nc1O,–,30,–,82
O=Nc1c(O)c2c(Cl)cc(Cl)cc2[nH]c1=O,–,33,–,–
Oc1nc2cc(F)c(Cl)c(F)c2nc1O,–,630,–,–
Cc1cc(C)c2c(O)c(N=O)c(O)nc2c1,2600,–,15,170

# Second part, led by results:
Kb [2] [nM],IC50 [3] [nM],Selectivity [4],SMILES,Kb [1] [nM]
410,12,17,O=Nc1c(O)nc2cc(Cl)c(Cl)cc2c1O,24
–,170,–,O=Nc1c(O)nc2ccc(Cl)c(Cl)c2c1O,–
–,1400,–,O=Nc1c(O)nc2ccccc2c1O,–
–,4400,–,O=Nc1c(O)nc2cccc(Cl)c2c1O,–
–,> 100000,–,O=Nc1c(O)nc2c(Cl)cccc2c1O,–
740,53,8.6,O=Nc1c(O)nc2cc(Cl)ccc2c1O,86
–,3400,–,O=Nc1c(O)c2cc(Cl)ccc2[nH]c1=O,–
600,–,13,O=Nc1c(O)nc2cc(Cl)cc(Cl)c2c1O,47
